Three compounds from US20080293746A1 (priority 2007, published 2008) can be followed below.

The test system of data set [1] is CCI-induced static allodynia. Nature of the data set: Chronic constriction injury (CCI) rat model of neuropathic pain, assessment of static allodynia (von Frey hairs, paw withdrawal threshold). It counts as in vivo.
Method: Animals: Male Sprague Dawley rats (150-250 g at the time of surgery), obtained from Charles River, (Manston, Kent, U.K.) were housed in groups of 3. All animals were kept under a 12 hour light/dark cycle (lights on at 07 h 00 min) with food and water ad libitum. All experiments were carried out by an observer blind to the treatments and in accordance with the Home Office Animals (Scientific Procedures) Act 1986.
The CCI of sciatic nerve was performed as previously described by Bennett and Xie (Bennett G J, Xie Y K. A peripheral mononeuropathy in rat that produces disorders of pain sensation like those seen in man. Pain: 33:87-107, 1988). Animals were anaesthetised with a 2% isofluorane/O2 mixture. The right hind thigh was shaved and swabbed with 1% iodine. Animals were then transferred to a homeothermic blanket for the duration of the procedure and anaesthesia maintained during surgery via a nose cone. The skin was cut along the line of the thighbone and the common sciatic nerve was exposed Four ligatures (4-0 silk) were tied loosely around the nerve, 1 cm proximally to the trifurcation, with approx 1 mm spacing. The incision was closed in layers.
Animals were habituated to wire bottom test cages prior to the assessment of allodynia. Static allodynia was evaluated by application of calibrated von Frey hairs (Stoelting, Wood Dale, Ill., USA.) in ascending order of force (0.8, 1, 1.4, 2, 4, 6, 8, 10, 15 and 26 grams) to the plantar surface of hind paws. Each von Frey hair was applied to the paw for a maximum of 6 seconds, or until a withdrawal response occurred. Once a withdrawal response to a von Frey hair was established, the paw was re-tested, starting with the filament below the one that produced a withdrawal, and subsequently with the remaining filaments in descending force sequence until no withdrawal occurred. The highest force of 26 g lifted the paw as well as eliciting a response, thus represented the cut off point. Each animal had both hind paws tested in this manner. The lowest amount of force required to elicit a response was recorded as paw withdrawal threshold (PWT) in grams. Static allodynia was defined as present if animals responded to a stimulus of, or less than, 4 g, which is innocuous in naive rats (Field M J, Bramwell S, Hughes J, Singh L. Detection of static and dynamic components of mechanical allodynia in rat models of neuropathic pain: are they signalled by distinct primary sensory neurones? Pain, 1999; 83:303-11).
The nature of data set [2]: Free plasma concentrations in the rat CCI studies. The following applies: Sprague Dawley; for concentration at 2.5 h: in vivo. From the text: It is important to ascertain whether any concluded synergy observed in animals or man is due solely to pharmacokinetic interactions.
A short description of data set [3]: clinical. The note with it: human, in vivo, po.
From the text: (§1) The pharmacokinetics of sildenafil after oral tablet administration have been extensively studied in healthy volunteers. The pharmacokinetics of 1-(2-ethoxyethyl)-5-[ethyl(methyl)amino]-N-mesyl-7-[(4-methyl-2-pyridyl)amino]-1H-pyrazolo[4,3-o]pyrimidine-3-carboxamide have been recently studied in several healthy volunteer studies.
For data set [4] the following is noted: human, in vivo, po.
From the text: as §1
Where [5] appears, read: oral dosing, CCI-induced static allodynia, rat (FIG. 1).

`CCOCCn1nc(C(=O)NS(C)(=O)=O)c2nc(N(C)CC)nc(Nc3cc(C)ccn3)c21`: the “effect on any allodynia endpoint” value in data set [1] (compound alone, oral dosing at 0.1 to 1 mg/kg (FIG. 2)) is reported as “no effect observed”. In data set [2] (plasma, oral, 1 mg/kg), the concentration at 1.3 h was at most 0.0102 µM and the concentration at 4.3 h is at most 0.0161 µM. Besides, the half-life (as a rule, how long it takes for the measured level to halve) in data set [3] lay within 10 to 15 h.
As to `CC(C)C[C@H](CN)CC(=O)O` [pregabalin, (S)-(+)-4-amino-3-(2-methylpropyl)butanoic acid], in data set [1] (setting [5]), the “dose at which a full effect is achieved” value worked out at 20 mg/kg and the “minimum effective dose (MED)” value worked out at 3 mg/kg. The “effect on static allodynia endpoints” value in data set [1] (pregabalin alone 10 mg/kg, 2 hours after dosing (FIG. 3)) is “partially reversed”. In data set [2] (3 mg/kg), the concentration at 2.5 h was found to be 17.8 µM. In addition, the concentration at 2.5 h in data set [2] (20 mg/kg) was determined as 89.8 µM.
Consider `CCCc1nn(C)c2c(=O)[nH]c(-c3cc(S(=O)(=O)N4CCN(C)CC4)ccc3OCC)nc12` [sildenafil, 5-[2-ethoxy-5-(4-methyl-1-piperazinyl-sulphonyl)phenyl]-1-methyl-3-n-propyl-1,6-dihydro-7H-pyrazolo[4,3-d]pyrimidin-7-one], for which, in data set [4], the “steady state peak to trough ratio of plasma concentration time profile” value is about 4 fold. This compound showed a half-life in data set [3] of 4 h.
